Test results as given in patent US9353152B2, “Induction of the mitochondrial permeability transition” (NewSouth Innovations Pty Limited, priority 2002, dated 2016).

How the values were obtained:
BAE cells = test: Mitochondrial membrane potential (JC-1) and apoptosis (annexin V) by flow cytometry; format: cell-based, bovine; details: 10% serum, 48 h
Method: For measurements of superoxide levels with dihydroethidine, mitochondrial membrane potential with JC-1, mitochondrial mass with nonyl acridine orange, and apoptosis with annexin V, proliferating or growth-quiescent BAE cells were treated for 24 or 48 h with GSAO in six-well culture plates, then detached with trypsin/EDTA, washed once, and resuspended at 2×10^6 cells per mL in serum-free medium. Cells were then incubated for 15 min at room temperature with dihydroethidine (5 μM, Molecular Probes) or 30 min at room temperature with JC-1 (0.5 μg·mL^−1, Molecular Probes), annexin V-FITC (50 μl·mL^−1) (Pharmingen, La Jolla, Calif., USA), or acridine orange 10-nonyl bromide (5 μM, Molecular Probes). Cells were then washed once, resuspended in 0.5 mL serum-free medium, transferred to ice, and fluorescence was quantitated immediately by flow cytometry.

[1] = Side-effects in Balb-C nude mice bearing BxPC-3 tumours; format: in vivo; details: 1 or 10 mg/kg/day s.c.
Method: Female 7 to 9 week old Balb C nude were used (UNSW Biological Resource Centre). Mice were held in groups of 3 to 5 at a 12 h day and night cycle and were given animal chow and water ad libidum. A suspension of 2.5×10^6 BxPC-3 cells in 0.2 mL of PBS was injected subcutaneously in the proximal midline. Tumours were allowed to establish and grow to a size of ˜40 mm^3 after which they were randomised into four groups. Tumour volume was calculated using the relationship, a·b^2·0.52, where a is the longest and b the shortest diameter. Animals were treated with either GSAO or o-GSAO at a dose 1 or 10 mg/kg/day in 0.1 mL of PBS. The compounds were administered subcutaneously at a site distant from the tumour. Tumour volume and animal weight was measured every 2 or 3 days.
Balb-C nude mice bearing ˜40 mm^3 BxPC-3 tumours were randomised into four groups (n=10 or 11 per group) and treated subcutaneously with either GSAO (part A) or o-GSAO (part B) at 1 or 10 mg/kg/day in 0.1 mL of PBS. Parts C and D are the mice weights for the respective groups, where the arrow indicates start of treatment. The data points are the mean±SE of the tumour volumes or mice weights. Treatment with 10 mg/kg o-GSAO (part B) was stopped at day 14 due to necrosis and inflammation at sites of injection in 7 out of 11 mice (3/11 with severe ulcers, 4/11 with medium ulcers).

N[C@@H](CCC(=O)N[C@@H](CSCC(=O)Nc1ccc([As]=O)cc1)C(=O)NCC(=O)O)C(=O)O (some centres unmarked) [GSAO, 4-(N—(S-glutathionylacetyl)amino)-phenylarsenoxide]
mitochondrial depolarisation (JC-1) and apoptosis (annexin V binding) (BAE cells): triggered mitochondrial depolarisation and induced apoptosis | side-effects (behavioural, skin necrosis, weight loss) with GSAO administration [1]: not observed
